{"source": "patent US20130039957A1", "about": "“CONTROLLED RELEASE PHARMACEUTICAL COMPOSITIONS OF BRIVARACETAM” (LUPIN LIMITED, priority 2010, published 2013)", "origin": "cited, not measured here", "key": {"[1]": {"target": "synaptic vesicle protein 2A (SV2A) (Homo sapiens, UniProt Q7L0J3)", "sequence (Q7L0J3 whole entry, species assumed)": "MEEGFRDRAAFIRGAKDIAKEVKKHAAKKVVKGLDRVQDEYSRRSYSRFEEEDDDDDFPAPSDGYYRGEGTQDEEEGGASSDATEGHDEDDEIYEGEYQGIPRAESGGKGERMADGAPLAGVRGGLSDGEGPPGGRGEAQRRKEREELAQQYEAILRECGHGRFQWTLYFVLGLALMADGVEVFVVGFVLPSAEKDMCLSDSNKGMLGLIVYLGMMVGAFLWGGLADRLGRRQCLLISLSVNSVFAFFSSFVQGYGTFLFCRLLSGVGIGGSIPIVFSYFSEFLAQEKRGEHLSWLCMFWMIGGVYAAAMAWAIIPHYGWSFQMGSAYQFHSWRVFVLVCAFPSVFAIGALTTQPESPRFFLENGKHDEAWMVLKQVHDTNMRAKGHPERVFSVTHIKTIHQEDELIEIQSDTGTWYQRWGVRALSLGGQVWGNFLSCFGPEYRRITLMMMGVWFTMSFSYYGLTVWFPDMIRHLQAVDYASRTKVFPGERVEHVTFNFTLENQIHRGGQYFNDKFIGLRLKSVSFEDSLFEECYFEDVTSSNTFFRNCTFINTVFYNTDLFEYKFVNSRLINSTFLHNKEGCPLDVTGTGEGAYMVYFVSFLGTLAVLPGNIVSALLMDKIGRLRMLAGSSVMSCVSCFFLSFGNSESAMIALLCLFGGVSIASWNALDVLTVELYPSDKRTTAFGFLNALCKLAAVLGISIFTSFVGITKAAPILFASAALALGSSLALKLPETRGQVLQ", "conditions": "preclinical studies"}, "[2]": {"tested_on": "neuronal voltage-dependent sodium channels", "conditions": "preclinical studies"}, "[3]": {"conditions": "healthy subjects"}}}
{"smiles": "CCC[C@@H]1CC(=O)N([C@@H](CC)C(N)=O)C1", "note": "[Brivaracetam]", "values": [{"measurement": "affinity for synaptic vesicle protein 2A (SV2A)", "setting": "[1]", "result": "showed affinity"}, {"measurement": "inhibitory activity at neuronal voltage-dependent sodium channels", "setting": "[2]", "result": "has inhibitory activity"}, {"measurement": "water solubility", "result": 700, "unit": "mg/mL"}, {"measurement": "half life", "setting": "[3]", "result": "7.6 ± 1.7", "unit": "h"}]}
